Consider seven molecules from patent US12351571B2, “Substituted quinoxaline compounds as inhibitors of FGFR tyrosine kinases” (ARRAY BIOPHARMA INC., priority 2018, dated 2025).

Each structure is given as a SMILES string.

As a reminder, the IC50 is the point on the concentration scale where inhibition reaches its midpoint.

Experiment [1] addresses phosphorylated FGFR3 (Homo sapiens (Human), UniProt P22607). Description: FGFR Enzyme Binding Assay (HTRF tracer displacement), FGFR3. The conditions noted are these: 5 nM phosphorylated FGFR3, 60 minute incubation at 22° C.; read-out: FGFR3 Enz Binding IC50. How it is done:
(§1) The potency of compounds inhibiting human isoforms of FGFR kinase was determined using Life Technologies' Homogeneous Time Resolved Fluorescence (HTRF)-based binding assay technology. An incubation was conducted with either 5 nM dephosphorylated FGFR1 (Array Biopharma, p1702; SEQ ID NO: 1, amino acids 458 to 765, dephosphorylated by co-expression with PTP1b (protein tyrosine phosphatase 1B)), 5 nM dephosphorylated FGFR2 (Life Technologies, Cat. No. PV4106 that had been dephosphorylated with Lambda protein phosphatase (New England Biolabs, cat #P0753)) or 5 nM phosphorylated FGFR3 (Array Biopharma, p1836; SEQ ID NO: 5, amino acids 449 to 759), 50 nM Kinase Tracer 236 (Life Technologies Cat. No. PR9078A), 2 nM Biotin-anti-6HIS (Life Technologies Cat. No. PV6090) and 2 nM Europium-Streptavidin (Life Technologies Cat. No. PV6025) along with test compound in a buffer consisting of 50 mM HEPES ((4-(2-hydroxyethyl)-1-piperazineethanesulfonic acid, pH 7.5), 5 mM MgCl2, 0.005% Triton X-100, 1 mM DTT, 1 mM NaVO4 and 2% DMSO in a final volume of 12 μL Compounds were typically prepared as a 3-fold or 4-fold serial dilution in DMSO and added to the assay to give the appropriate final concentration. After a 60 minute incubation at 22° C., the extent of tracer displacement was determined using a PerkinElmer EnVision multimode plate reader via HTRF dual wavelength detection, and the percent of control (POC) was calculated using a ratiometric emission factor. One hundred POC was determined using no test compound, and 0 POC was determined in the presence of 1 μM of an appropriate control inhibitor. A 4-parameter logistic curve was fit to the POC values as a function of the concentration of compound, and the IC50 value was the point where the best-fit curve crossed 50 POC.
(In general: Time-resolved FRET reads energy transfer from a long-lived donor to a nearby acceptor.)

The target in experiment [2] is FGFR3 (Homo sapiens (Human), UniProt P22607). The experiment in a line: LC/MS FGFR3 kobs assay (covalent modification). In kind it is biochemical. The conditions noted are these: 500 nM FGFR3, 3 μM compound. The protocol:
The LC/MS FGFR1 and FGFR3 kobs assays were conducted as follows. 500 nM FGFR1 (Array BioPharma construct p1702; SEQ ID NO: 1, amino acids 458-765) or FGFR3 (Array BioPharma construct p1700; SEQ ID NO: 5, amino acids 449-759) were incubated with 3 μM compound in 25 mM HEPES (4-(2-hydroxyethyl)-1-piperazineethanesulfonic acid), pH 7.4, 5 mM MgCl2, 150 mM NaCl, 0.5 mM TCEP (tris(2-carboxyethyl) phosphine), and 2% DMSO in a total volume of 20 μL. At each time point, the reaction was quenched with 20 μL of 0.4% formic acid. The extent of protein modification by each compound was determined by LC/MS on an Agilent Technologies 6520 Q-TOF LC/MS. Protein signals were then automatically deconvoluted using Agilent Masshunter software. Deconvoluted mass signals were exported to Tibco Spotfire data analysis program for further processing and normalization.
Data analysis included five steps. First, the signals for the “DMSO Controls” were analyzed to determine the percent of signal associated with unmodified FGFR1 or FGFR3 at each time point. Next, the percent of the signal associated with the covalent modification was determined. Third, the average nonmodified “DMSO Control” signal was used to normalize the modified protein signals at each time point. The percent of unmodified protein was fit to an exponential decay model where A0 is the Percent Unmodified at the start of the reaction, and kobs is the observed rate constant over the time period.

Experiment [3] addresses recombinant human FGFR1 catalytic domain (Homo sapiens (Human), UniProt P11362). The experiment in a line: FGFR Enzyme Activity Assay (LanthaScreen TR-FRET), FGFR1. In kind it is biochemical. The conditions noted are these: 15 μM ATP, 20 minutes incubation; read-out: FGFR1 Enz FRET IC50. How it is done:
FGFR1 kinase activity was measured by the Invitrogen LanthaScreen™ Assay technology which directly measures the amount of substrate phosphorylation by Time-resolved fluorescence energy transfer (TR-FRET) using a flourescently-labeled peptide and Europium-labeled antibody. Briefly, 200 pM His-tagged recombinant human FGFR1 catalytic domain (amino acids 308-731) (Life Technologies Cat. No. PR4660A) was incubated with 100 nM Alexa Fluor® 647-Poly-GT Peptide Substrate (Life Technologies Cat. No. PV5836) and 15 μM ATP along with test compound in a buffer consisting of 250 mM HEPES, 25 mM MgCl2, 0.05% TritonX-100, pH 7.5, and 2% DMSO. Compounds were typically prepared in a threefold serial dilution in DMSO and added to the assay to give the appropriate final concentration. After a 20 minutes incubation at 22° C., an equal volume of 2 nM LanthaScreen® Eu-PY20 Antibody (Life Technologies Cat. No. PV5691) and 10 mM EDTA was added to quench the kinase reaction and start the detection reaction. After an additional 60 minute incubation at 22° C., the reaction was measured using a PerkinElmer EnVision multimode plate reader via TR-FRET dual wavelength detection, and the percent of control (POC) calculated using a ratiometric emission factor. 100 POC was determined using no test compounds and 0 POC was determined using no enzyme. The POC values were fit to a 4-parameter logistic curve as a function of the concentration of the compound, and the IC50 value is the point where the curve crosses 50 POC.

For experiment [4], the target named is dephosphorylated FGFR1 (Homo sapiens (Human), UniProt P11362). The experiment in a line: FGFR Enzyme Binding Assay (HTRF tracer displacement), FGFR1. The following applies: 5 nM dephosphorylated FGFR1, 60 minute incubation at 22° C.; read-out: FGFR1 Enz Binding IC50. The protocol: as §1
Sequence of dephosphorylated FGFR1 (P11362 458-765): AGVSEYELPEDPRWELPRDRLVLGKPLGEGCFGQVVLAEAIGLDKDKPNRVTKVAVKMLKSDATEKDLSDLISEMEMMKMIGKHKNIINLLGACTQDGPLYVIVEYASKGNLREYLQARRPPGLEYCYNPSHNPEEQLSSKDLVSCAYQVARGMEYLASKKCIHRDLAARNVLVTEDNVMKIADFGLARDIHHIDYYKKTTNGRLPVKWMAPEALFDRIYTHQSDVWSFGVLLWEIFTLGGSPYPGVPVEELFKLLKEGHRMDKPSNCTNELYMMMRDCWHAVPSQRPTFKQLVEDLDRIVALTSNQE

Sequence of phosphorylated FGFR3 (P22607 449-759): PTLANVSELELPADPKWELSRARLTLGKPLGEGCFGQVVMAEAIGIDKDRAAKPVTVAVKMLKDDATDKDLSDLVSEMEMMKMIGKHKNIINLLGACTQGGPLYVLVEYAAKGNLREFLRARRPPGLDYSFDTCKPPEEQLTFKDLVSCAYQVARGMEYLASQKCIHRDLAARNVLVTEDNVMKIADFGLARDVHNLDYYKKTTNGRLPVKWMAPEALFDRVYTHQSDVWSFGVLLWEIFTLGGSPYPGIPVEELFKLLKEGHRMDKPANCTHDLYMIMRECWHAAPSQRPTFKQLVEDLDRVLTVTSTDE
Sequence of FGFR3 (P22607 449-759): as above
Sequence of recombinant human FGFR1 catalytic domain (P11362 other isoform, or with tags, fused parts or gaps): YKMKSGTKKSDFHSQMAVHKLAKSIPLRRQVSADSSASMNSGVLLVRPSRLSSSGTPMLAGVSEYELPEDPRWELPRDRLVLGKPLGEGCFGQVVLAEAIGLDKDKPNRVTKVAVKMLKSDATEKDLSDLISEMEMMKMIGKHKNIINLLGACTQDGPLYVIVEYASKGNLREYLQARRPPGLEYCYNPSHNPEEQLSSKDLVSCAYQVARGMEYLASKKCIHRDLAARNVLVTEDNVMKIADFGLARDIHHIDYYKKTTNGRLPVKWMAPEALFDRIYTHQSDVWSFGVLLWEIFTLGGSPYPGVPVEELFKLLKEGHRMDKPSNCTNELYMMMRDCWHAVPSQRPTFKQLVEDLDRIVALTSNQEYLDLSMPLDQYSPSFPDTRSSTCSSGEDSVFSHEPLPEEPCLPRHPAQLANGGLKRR

In the case of `C=CC(=O)N1CC(OC)(C(=O)N2CCC(n3cc(-c4cnc5ccc(Nc6cc(OC)cc(OC)c6)cc5n4)cn3)CC2)C1` [Example 24, 1-(3-(4-(4-(7-((3,5-dimethoxyphenyl)amino)-quinoxalin-2-yl)-1H-pyrazol-1-yl)piperidine-1-carbonyl)-3-methoxy-azetidin-1-yl)prop-2-en-1-one], the IC50 stood at 9 nM in experiment [1], 229 nM in experiment [3] and 53 nM in experiment [4]. Besides, in experiment [2], the “FGFR3 Enz kobs” value amounted to 0.01322 min⁻¹.
Consider `C=CC(=O)N1CC(C(=O)N2CCN(c3cccc(-c4cnc5ccc(Nc6cc(OC)cc(OC)c6)cc5n4)c3)CC2)C1` [Example 25, 1-(3-(4-(3-(7-((3,5-dimethoxyphenyl)amino)-quinoxalin-2-yl)phenyl)-piperazine-1-carbonyl)-azetidin-1-yl)prop-2-en-1-one], for which the IC50 in experiment [1] worked out at 327 nM; in experiment [3] it was 1760 nM; in experiment [4], 759 nM. Moreover, in experiment [2], the “FGFR3 Enz kobs” value worked out at 0.00369 min⁻¹.
On the same counts, the results for `C=CC(=O)N1CC(O)(C(=O)N2CCC(n3cc(-c4cnc5ccc(Nc6cc(OC)cc(OC)c6)cc5n4)cn3)CC2)C1` [Example 26, 1-(3-(4-(4-(7-((3,5-dimethoxyphenyl)amino)quinoxalin-2-yl)-1H-pyrazol-1-yl)piperidine-1-carbonyl)-3-hydroxyazetidin-1-yl)prop-2-en-1-one] are 6 nM, 118 nM, 37 nM and 0.01414 min⁻¹.
With `C=CC(=O)N1CC(O)(C(=O)N2CCC(n3cc(-c4cnc5ccc(N(C)c6cc(OC)cc(OC)c6)cc5n4)cn3)CC2)C1` [Example 27, 1-(3-(4-(4-(7-((3,5-dimethoxyphenyl)(methyl)amino)quinoxalin-2-yl)-1H-pyrazol-1-yl)piperidine-1-carbonyl)-3-hydroxyazetidin-1-yl)prop-2-en-1-one], the IC50 in experiment [1] was determined as 6 nM; in experiment [3] it was 10 nM; in experiment [4] it was 13 nM. The “FGFR3 Enz kobs” value in experiment [2] was found to be 0.00987 min⁻¹.
For `C#CCN(c1cc(OC)cc(OC)c1)c1ccc2ncc(-c3cnn(C4CCN(C(=O)C5(F)CN(C(=O)/C=C/CN(C)C)C5)CC4)c3)nc2c1` [Example 28, (E)-1-(3-(4-(4-(7-((3,5-dimethoxyphenyl)(prop-2-yn-1-yl)amino)quinoxalin-2-yl)-1H-pyrazol-1-yl)piperidine-1-carbonyl)-3-fluoroazetidin-1-yl)-4-(dimethylamino)but-2-en-1-one] the same measures were 2 nM, 21 nM, 6 nM and 0.078 min⁻¹.
Turning to `C=CC(=O)N1CC(CN2CCC(n3cc(-c4cnc5ccc(Nc6cc(OC)cc(OC)c6)cc5n4)cn3)CC2)(OC)C1` [Example 29, 1-(3-((4-(4-(7-((3,5-dimethoxyphenyl)amino)quinoxalin-2-yl)-1H-pyrazol-1-yl)piperidin-1-yl)methyl)-3-methoxyazetidin-1-yl)prop-2-en-1-one], the IC50 was 3 nM in experiment [1], 414 nM in experiment [3] and 50 nM in experiment [4]. Further, the “FGFR3 Enz kobs” value in experiment [2] came out at 0.01671 min⁻¹.
For `C=CC(=O)N1CC(CN2CCC(n3cc(-c4cnc5ccc(Nc6cc(OC)cc(OC)c6)cc5n4)cn3)CC2)C1` [Example 30, 1-(3-((4-(4-(7-((3,5-dimethoxyphenyl)amino)quinoxalin-2-yl)-1H-pyrazol-1-yl)piperidin-1-yl)methyl)azetidin-1-yl)prop-2-en-1-one] the same measures were 3 nM, 147 nM, 34 nM and 0.01591 min⁻¹.
